Reference: US8993585B2, “Cyclic amine substituted pyrimidinediamines as PKC inhibitors” (Rigel Pharmaceuticals, Inc., priority 2007, dated 2015)

Legend:
[1] = tested on: Human primary T cells; experiment: IL-2 ELISA, Human Primary T Cell, Anti-CD3+CD28+ (Example 3); type: cell-based; settings: anti-CD3+CD28 stimulation
In short: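 Human primary T cells, 100,000 per well, were pre-incubated with compound in Yssel's medium for 1 h at 37 °C. The counter-assay used 0.5 ng/ml PMA with 0.1 uM ionomycin final.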

[2] = molecular target: T1, PKC epsilon (Homo sapiens, UniProt Q02156); experiment: PKC assay, fluorescence polarization (Example 2), PKC epsilon; type: biochemical; settings: 5 μM ATP
T1 construct: purchased Upstate Biotechnologies, Temecula, CA 14-518
T1 sequence (Q02156 1-737): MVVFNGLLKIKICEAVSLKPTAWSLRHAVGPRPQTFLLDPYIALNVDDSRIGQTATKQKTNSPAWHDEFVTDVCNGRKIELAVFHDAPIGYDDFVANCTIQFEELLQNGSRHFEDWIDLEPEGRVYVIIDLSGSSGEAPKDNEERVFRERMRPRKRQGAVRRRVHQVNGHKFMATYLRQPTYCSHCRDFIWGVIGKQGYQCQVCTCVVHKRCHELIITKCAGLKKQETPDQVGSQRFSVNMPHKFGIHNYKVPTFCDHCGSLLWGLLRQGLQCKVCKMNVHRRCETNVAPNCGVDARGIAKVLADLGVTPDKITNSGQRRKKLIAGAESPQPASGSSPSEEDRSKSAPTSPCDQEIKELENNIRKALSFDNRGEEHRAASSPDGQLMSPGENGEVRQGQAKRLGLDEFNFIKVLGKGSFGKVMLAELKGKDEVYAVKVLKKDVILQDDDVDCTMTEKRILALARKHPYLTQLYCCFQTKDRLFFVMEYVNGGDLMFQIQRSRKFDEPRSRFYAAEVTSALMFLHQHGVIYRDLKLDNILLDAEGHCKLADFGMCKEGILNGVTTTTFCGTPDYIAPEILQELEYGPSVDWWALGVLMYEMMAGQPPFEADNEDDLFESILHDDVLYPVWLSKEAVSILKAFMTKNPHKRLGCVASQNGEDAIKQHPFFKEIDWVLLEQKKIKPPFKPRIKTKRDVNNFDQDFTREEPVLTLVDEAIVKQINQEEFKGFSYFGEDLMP
Procedure: (§1) The inhibition of PKC activity was measured by monitoring the production of phosphorylated peptide by fluorescence polarization at different concentrations of the inhibitor. Reactions were carried out in 96-well plate format with a total volume of 20 μL containing 20 mM HEPES, pH 7.4, 5 mM MgCl2, 0.2 mM CaCl2, 1 mM DTT, 0.02% Brij-35, 0.1 mg/mL phosphatidylserine, 0.02 mg/mL dioleoyl-sn-glycerol and 5 μM each of ATP and the peptide substrate. Compounds were first diluted serially in DMSO and then transferred to a solution containing the above concentrations of HEPES, MgCl2, CaCl2, DTT, and Brij-35 to yield 5× compound solutions in 2% DMSO, which was then added to the reaction solution. Reactions were initiated by the addition of PKC at a typical concentration as described in Table VI, and then allowed to incubate at room temperature for 20 min. At the end of this time, a combination of quench (EDTA) and detection (peptide tracer and antibody) reagents was added using the protocol of Invitrogen P2748.

[3] = molecular target: T2, PKC mu (Homo sapiens, UniProt Q15139); experiment: PKC assay, fluorescence polarization (Example 2), PKC mu; type: biochemical; settings: 5 μM ATP
T2 sequence (Q15139 1-912): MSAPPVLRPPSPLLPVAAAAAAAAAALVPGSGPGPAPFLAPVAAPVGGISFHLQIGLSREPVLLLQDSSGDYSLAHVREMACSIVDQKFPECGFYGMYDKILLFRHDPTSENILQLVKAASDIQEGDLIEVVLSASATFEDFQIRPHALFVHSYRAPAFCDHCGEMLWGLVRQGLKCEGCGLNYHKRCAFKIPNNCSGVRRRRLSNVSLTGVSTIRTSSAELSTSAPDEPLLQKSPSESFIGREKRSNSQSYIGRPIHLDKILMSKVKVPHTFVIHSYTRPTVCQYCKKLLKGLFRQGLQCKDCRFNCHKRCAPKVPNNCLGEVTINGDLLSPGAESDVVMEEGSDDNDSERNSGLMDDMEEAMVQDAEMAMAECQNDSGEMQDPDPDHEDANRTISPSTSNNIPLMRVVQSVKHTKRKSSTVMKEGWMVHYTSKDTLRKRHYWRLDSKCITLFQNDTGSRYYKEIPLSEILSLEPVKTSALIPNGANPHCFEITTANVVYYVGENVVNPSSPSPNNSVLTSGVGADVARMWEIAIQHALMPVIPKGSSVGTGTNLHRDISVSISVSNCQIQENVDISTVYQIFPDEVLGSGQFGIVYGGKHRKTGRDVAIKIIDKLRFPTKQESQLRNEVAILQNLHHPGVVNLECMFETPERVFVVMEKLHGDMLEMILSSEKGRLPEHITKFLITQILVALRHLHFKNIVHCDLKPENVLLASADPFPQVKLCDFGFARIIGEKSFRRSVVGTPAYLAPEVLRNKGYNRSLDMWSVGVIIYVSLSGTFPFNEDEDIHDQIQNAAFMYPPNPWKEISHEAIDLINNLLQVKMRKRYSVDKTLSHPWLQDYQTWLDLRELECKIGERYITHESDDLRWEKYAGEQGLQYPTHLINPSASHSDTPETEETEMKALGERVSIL
Procedure: as §1, with “P2748. After a 30 min. period of incubation, the amount of phosphorylated peptide generated was measured by fluorescence polarization (Ex=485 nm, Em=535 nm) using a Tecan Polarian instrument.” for “P2748.”

[4] = molecular target: T3, PKC theta (Homo sapiens, UniProt Q04759); experiment: PKC assay, fluorescence polarization (Example 2), PKC theta; type: biochemical; settings: 5 μM ATP
T3 construct: purchased Upstate Biotechnologies, Temecula, CA 14-444
T3 sequence (Q04759 whole entry): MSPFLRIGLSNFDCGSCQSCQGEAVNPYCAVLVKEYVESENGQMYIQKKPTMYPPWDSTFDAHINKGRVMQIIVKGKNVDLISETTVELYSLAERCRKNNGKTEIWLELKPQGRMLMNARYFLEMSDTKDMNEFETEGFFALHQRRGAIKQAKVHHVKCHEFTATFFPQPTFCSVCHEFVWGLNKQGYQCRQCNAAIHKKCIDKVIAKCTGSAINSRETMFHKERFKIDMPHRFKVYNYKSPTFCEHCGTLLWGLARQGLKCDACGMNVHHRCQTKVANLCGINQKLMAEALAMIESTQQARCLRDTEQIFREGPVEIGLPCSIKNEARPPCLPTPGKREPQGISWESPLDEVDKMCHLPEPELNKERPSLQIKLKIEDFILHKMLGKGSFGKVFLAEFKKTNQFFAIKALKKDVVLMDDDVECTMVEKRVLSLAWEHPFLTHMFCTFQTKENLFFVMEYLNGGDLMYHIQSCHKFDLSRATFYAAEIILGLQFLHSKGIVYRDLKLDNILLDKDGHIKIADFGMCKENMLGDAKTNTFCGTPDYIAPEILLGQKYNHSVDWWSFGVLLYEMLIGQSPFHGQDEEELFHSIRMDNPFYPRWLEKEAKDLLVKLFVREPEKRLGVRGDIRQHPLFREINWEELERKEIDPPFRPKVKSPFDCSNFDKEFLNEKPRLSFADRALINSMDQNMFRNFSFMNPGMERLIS
In short: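 Phosphorylated peptide product detected by fluorescence polarization, with EDTA quench plus peptide tracer and antibody. Reaction in 20 mM HEPES pH 7.4, 5 mM MgCl2, 0.2 mM CaCl2, 1 mM DTT, 0.02% Brij-35, phosphatidylserine and dioleoyl-sn-glycerol, with 5 μM ATP and 5 μM peptide. Started with enzyme, 20 min at room temperature.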

IC50 ([1]; Homo sapiens, T-cell, 24 h) [nM] | IC50 [2] [nM] | IC50 [3] [nM] | IC50 [4] [nM] | IC50 ([1]; 24 hours) [nM] | Structure (SMILES)
196 | 506 | 33 | 16 |  | CN1CCN(c2ccc(Nc3ncc(C(F)(F)F)c(NC4CC(C)(C)N(C)C(C)(C)C4)n3)cc2C(F)(F)F)CC1 [Compound I-38]
94.6 | 131 |  | 5.51 |  | CN1CCN(c2ccc(Nc3ncc(C#N)c(NC4CC(C)(C)N(C)C(C)(C)C4)n3)cc2Cl)CC1 [Compound I-101]
172 | 100 |  | 3.66 |  | COc1ccc(Nc2ncc(F)c(NC3CC(C)(C)N(C)C(C)(C)C3)n2)cc1-n1c(C)ccc1C [Compound I-348]
590 | 125 |  | 3.6 |  | Cc1nnnn1-c1cccc(Nc2ncc(C#N)c(NC3CC(C)(C)NC(C)(C)C3)n2)c1 [Compound I-463]
 | 60.3 |  | 4.38 | 237 | Cc1ccc(Nc2ncc(F)c(NC3CC(C)(C)N(C)C(C)(C)C3)n2)cc1-c1cccnc1 [Compound I-197]
122 | 89.6 |  | 1.71 |  | COc1ccc(Nc2ncc(C#N)c(NC3CC(C)(C)N(C)C(C)(C)C3)n2)cc1OC(F)F [Compound I-366]
229 | 158 |  | 5.48 |  | CN1C(C)(C)CC(Nc2nc(Nc3ccc(F)c(C#N)c3)ncc2F)CC1(C)C [Compound I-140]
310 | 42.9 |  | 3.5 |  | CN1C(C)(C)CC(Nc2nc(Nc3cc(OCC(F)(F)F)cc(OCC(F)(F)F)c3)ncc2F)CC1(C)C [Compound I-378]
270 | 27.8 |  | 4.1 |  | COc1cc(Nc2ncc(C#N)c(NC3CC(C)(C)N(C)C(C)(C)C3)n2)cc(OC)c1 [Compound I-364]
185 | 41.9 |  | 1.11 |  | CN1C(C)(C)CC(Nc2nc(Nc3ccc(N4CCCC4)c(C#N)c3)ncc2F)CC1(C)C [Compound I-200]
260 | 935 |  | 0.4 |  | COc1ccc(Nc2ncc(C#N)c(NC3CC(C)(C)N(C)C(C)(C)C3)n2)cc1-n1c(C)ccc1C [Compound I-376]
60 | 13 |  | 0.5 |  | CCOc1ccc(Nc2ncc(F)c(NC3CC(C)(C)NC(C)(C)C3)n2)cc1-n1nnnc1CC [Compound I-415]
